The record followed here is patent US20250179103A1, “6-OXODECAHYDROPYRROLO[1,2-A][1,5]DIAZOCINE AND 6-OXODECAHYDRO-4H-PYRROLO[2,1-D][1,5]THIAZOCINE DERIVATIVES AS STAT3 AND STAT6 MODULATORS FOR THE TREATMENT OF CANCER AND INFLAMMATORY CONDITIONS” (Recludix Pharma, Inc., priority 2022, published 2025).

Test [1] deals with T1, Recombinant STAT6 protein (STAT6(W123-T658)) (Homo sapiens, UniProt P42226).
T1 construct: Recombinant STAT6 protein (STAT6(W123-T658))
T1 sequence (P42226 123-658): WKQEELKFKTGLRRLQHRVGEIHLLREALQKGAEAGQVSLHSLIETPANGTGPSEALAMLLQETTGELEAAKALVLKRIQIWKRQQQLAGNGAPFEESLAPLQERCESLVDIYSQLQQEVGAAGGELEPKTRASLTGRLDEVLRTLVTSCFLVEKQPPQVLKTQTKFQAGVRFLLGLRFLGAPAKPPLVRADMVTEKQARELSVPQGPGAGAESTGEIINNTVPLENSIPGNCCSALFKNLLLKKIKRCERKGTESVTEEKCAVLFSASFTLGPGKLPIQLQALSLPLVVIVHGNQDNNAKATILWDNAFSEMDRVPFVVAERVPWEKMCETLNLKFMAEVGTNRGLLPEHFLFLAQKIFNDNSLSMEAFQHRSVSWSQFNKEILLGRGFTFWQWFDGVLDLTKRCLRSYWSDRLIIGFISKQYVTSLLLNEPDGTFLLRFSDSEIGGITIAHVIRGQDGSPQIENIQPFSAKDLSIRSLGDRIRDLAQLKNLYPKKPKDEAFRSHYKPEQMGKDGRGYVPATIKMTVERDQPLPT
Briefly: STAT6 Fluorescence Polarization (FP) Assay. Type of test: binding. Particulars: STAT6(W123-T658) 250 nM, probe 5-FAM-ApYKPFQDLI-NH2 2 nM, 45-minute incubation. The gist of the method: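 Displacement of a fluorescent phosphotyrosine peptide (5-FAM-ApYKPFQDLI-NH2, 2 nM) from STAT6(W123-T658) (250 nM), 1% DMSO, pH 7.4 HEPES buffer. After 45 min at room temperature, polarization (mP) was plotted versus log compound concentration and fitted by nonlinear regression to give IC50.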
For orientation: In fluorescence polarisation assays a small probe gives low polarisation when free and higher when bound to something large.

Test [2] addresses T2, Recombinant STAT3 protein (STAT3(G127-I722)) (Homo sapiens, UniProt P40763).
T2 construct: Recombinant STAT3 protein (STAT3(G127-I722))
Kind of test: STAT3 Fluorescence Polarization (FP) Assay. It counts as binding. The following applies: STAT3(G127-I722) 25 nM, probe 5-FAM-GpYLPQTV-NH2 2 nM, 45-minute incubation. Put shortly: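 Fluorescence polarization after a 45-min room-temperature incubation measured compound displacement of a 2 nM fluorescein-labelled phosphotyrosine peptide (5-FAM-GpYLPQTV-NH2) from 25 nM recombinant STAT3(G127-I722). Buffer was 10 mM HEPES pH 7.4 with 1% DMSO final. IC50s were fitted by nonlinear regression of mP against log concentration.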

pIC50: −log10 of the molar value.

T2 sequence (P40763 127-722): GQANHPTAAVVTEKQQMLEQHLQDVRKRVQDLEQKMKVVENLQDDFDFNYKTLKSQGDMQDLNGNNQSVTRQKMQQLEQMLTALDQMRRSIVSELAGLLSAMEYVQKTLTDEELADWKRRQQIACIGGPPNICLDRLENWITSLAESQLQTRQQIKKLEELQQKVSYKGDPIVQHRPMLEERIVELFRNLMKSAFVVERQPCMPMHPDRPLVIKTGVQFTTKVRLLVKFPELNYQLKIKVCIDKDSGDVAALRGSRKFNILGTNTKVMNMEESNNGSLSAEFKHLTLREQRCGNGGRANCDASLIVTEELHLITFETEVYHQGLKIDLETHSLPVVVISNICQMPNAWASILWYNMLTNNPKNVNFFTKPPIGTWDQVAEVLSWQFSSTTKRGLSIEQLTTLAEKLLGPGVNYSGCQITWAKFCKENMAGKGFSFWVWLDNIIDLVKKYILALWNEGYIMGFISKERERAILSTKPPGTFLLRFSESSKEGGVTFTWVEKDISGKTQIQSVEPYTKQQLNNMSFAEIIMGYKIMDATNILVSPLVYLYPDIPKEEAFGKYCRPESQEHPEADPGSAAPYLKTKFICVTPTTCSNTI

For orientation: pIC50 means the negative decadic logarithm of the IC50, by convention in mol/L. As for `O=C(N[C@H]1CN(C(=O)c2noc3c2CCCC3)CC[C@H]2CC[C@@H](C(=O)N3CCOCC3)N2C1=O)c1ccc2ccc(C(F)P(=O)(O)O)cc2c1` (stereo partly drawn) [Compound 358, (fluoro(7-(((5S,8S,10aR)-8-(morpholine-4-carbonyl)-6-oxo-3-(4,5,6,7-tetra-hydrobenzo[d]isoxazole-3-carbonyl)decahydropyrrolo [1,2-a][1,5]diazocin-5-yl)carbamoyl)naphthalen-2-yl)methyl)phosphonic acid], the pIC50 in test [1] is 5.52 to 6.52; in test [2], < 5.00.
For `O=C(N[C@H]1CN(C(=O)c2cc3ncccn3n2)CC[C@H]2CC[C@@H](C(=O)N3CCOCC3)N2C1=O)c1ccc2ccc(C(F)P(=O)(O)O)cc2c1` (stereo partly drawn) [Compound 359, (fluoro(7-(((5S,8S,10aR)-8-(morpholine-4-carbonyl)-6-oxo-3-(pyrazolo[1,5-a]pyrimidine-2-carbonyl)decahydropyrrolo[1,2-a] [1,5]diazocin-5-yl)carbamoyl)naphthalen-2-yl)methyl)phosphonic acid] the same measures were 5.52 to 6.52 and < 5.00.
For `O=C(N[C@H]1CN(C(=O)c2noc3c2COCC3)CC[C@H]2CC[C@@H](C(=O)N3CCOCC3)N2C1=O)c1ccc2ccc(C(F)P(=O)(O)O)cc2c1` (stereo partly drawn) [Compound 360, ((7-(((5S,8S,10aR)-3-(6,7-dihydro-4H-pyrano[3,4-d]isoxazole-3-carbonyl)-8-(morpholine-4-carbonyl)-6-oxodecahydropyrrolo [1,2-a][1,5]diazocin-5-yl)carbamoyl)naphthalen-2-yl)fluoromethyl) phosphonic acid] the same measures were 5.52 to 6.52 and < 5.00.
`CCCS(=O)(=O)N1CC[C@H]2CC[C@@H](C(=O)N3CCOCC3)N2C(=O)[C@@H](NC(=O)c2ccc3ccc(C(F)P(=O)(O)O)cc3c2)C1` (stereo partly drawn) [Compound 361, (fluoro(7-(((5S,8S,10aR)-8-(morpholine-4-carbonyl)-6-oxo-3-(propylsulfonyl)decahydropyrrolo[1,2-a] [1,5]diazocin-5-yl)carbamoyl)naphthalen-2-yl)methyl)phosphonic acid]: the values for the negative logarithm of the IC50 (pIC50) in test [1] and in test [2] were 4.52 to 5.52 and < 5.00, respectively.
The like results for `COc1ccc2onc(C(=O)N3CC[C@H]4CC[C@@H](C(=O)N5CCOCC5)N4C(=O)[C@@H](NC(=O)c4ccc5ccc(C(F)P(=O)(O)O)cc5c4)C3)c2c1` (stereo partly drawn) [Compound 362, (fluoro(7-(((5S,8S,10aR)-3-(5-methoxybenzo[d]isoxazole-3-carbonyl)-8-(morpholine-4-carbonyl)-6-oxodecahydropyrrolo [1,2-a][1,5]diazocin-5-yl)carbamoyl)naphthalen-2-yl)methyl)phosphonic acid] were, in that order, ≥ 6.52 and < 5.00.
For `COc1ccc2c(C(=O)N3CC[C@H]4CC[C@@H](C(=O)N5CCOCC5)N4C(=O)[C@@H](NC(=O)c4ccc5ccc(C(F)P(=O)(O)O)cc5c4)C3)noc2c1` (stereo partly drawn) [Compound 363, (fluoro(7-(((5S,8S,10aR)-3-(6-methoxybenzoyl[d]isoxazole-3-carbonyl)-8-(morpholine-4-carbonyl)-6-oxodecahydropyrrolo [1,2-a][1,5]diazocin-5-yl)carbamoyl)naphthalen-2-yl)methyl)phosphonic acid] the same measures were ≥ 6.52 and < 5.00.
The like results for `O=C(N[C@H]1CN(C(=O)c2ncn3c2CCCC3)CC[C@H]2CC[C@@H](C(=O)N3CCOCC3)N2C1=O)c1ccc2ccc(C(F)P(=O)(O)O)cc2c1` (stereo partly drawn) [Compound 364, (fluoro(7-(((5S,8S,10aR)-8-(morpholine-4-carbonyl)-6-oxo-3-(5,6,7,8-tetrahydroimidazo[1,5-a]pyridine-1-carbonyl)decahydropyrrolo[1,2-a][1,5]diazocin-5-yl)carbamoyl)naphthalen-2-yl)methyl)phosphonic acid] were, in that order, 5.52 to 6.52 and < 5.00.
Turning to `O=C(N[C@H]1CN(C(=O)c2noc3ccc(Cl)cc23)CC[C@H]2CC[C@@H](C(=O)N3CCOCC3)N2C1=O)c1ccc2ccc(C(F)P(=O)(O)O)cc2c1` (stereo partly drawn) [Compound 365, ((7-(((5S,8S,10aR)-3-(5-chlorobenzo[d]isoxazole-3-carbonyl)-8-(morpholine-4-carbonyl)-6-oxodecahydro-pyrrolo[1,2-a][1,5]diazocin-5-yl)carbamoyl)naphthalen-2-yl)fluoromethyl) phosphonic acid], the pIC50 in test [1] was ≥ 6.52; in test [2] it was < 5.00.
Consider `Cc1ccc2cc(C(=O)N3CC[C@H]4CC[C@@H](C(=O)N5CCOCC5)N4C(=O)[C@@H](NC(=O)c4ccc5ccc(C(F)P(=O)(O)O)cc5c4)C3)cc(Cl)c2n1` (stereo partly drawn) [Compound 366, ((7-(((5S,8S,10aR)-3-(8-chloro-2-methyl-quinoline-6-carbonyl)-8-(morpholine-4-carbonyl)-6-oxodecahydropyrrolo [1,2-a][1,5]diazocin-5-yl)carbamoyl)naphthalen-2-yl)fluoromethyl) phosphonic acid], for which the pIC50 is 5.52 to 6.52 in test [1] and < 5.00 in test [2].
In the case of `Cc1ccc2[nH]nc(C(=O)N3CC[C@H]4CC[C@@H](C(=O)N5CC(c6cc[nH]c(=O)c6)CC56CC6)N4C(=O)[C@@H](NC(=O)c4ccc5ccc(C(F)(F)P(=O)(O)O)cc5c4)C3)c2c1` (stereo partly drawn) [Compound 367, (difluoro(7-(((5S,8S, 10aR)-3-(5-methyl-1H-indazole-3-carbonyl)-6-oxo-8-(6-(2-oxo-1,2-dihydropyridin-4-yl)-4-azaspiro[2.4]heptane-4-carbonyl)decahydropyrrolo[1,2-a][1,5]diazocin-5-yl)carbamoyl)naphthalen-2-yl)methyl) phosphonic acid], the pIC50 in test [1] was ≥ 6.52; in test [2] it was 5.00 to 6.00.
The like results for `Cc1ccc2onc(C(=O)N3CC[C@H]4CC[C@@H](C(=O)N5CCN(S(C)(=O)=O)CC5)N4C(=O)[C@@H](NC(=O)c4ccc5ccc(C(F)P(=O)(O)O)cc5c4)C3)c2c1` (stereo partly drawn) [Compound 368, (fluoro(7-(((5S,8S,10aR)-3-(5-methylbenzo[d]isoxazole-3-carbonyl)-8-(4-(methylsulfonyl)piperazine-1-carbonyl)-6-oxodecahydropyrrolo [1,2-a][1,5]diazocin-5-yl)carbamoyl)naphthalen-2-yl)methyl)phosphonic acid] were, in that order, ≥ 6.52 and < 5.00.
The like results for `Cc1ccc2onc(C(=O)N3CC[C@H]4CC[C@@H](C(=O)N5CCN(c6nsc7ccccc67)CC5)N4C(=O)[C@@H](NC(=O)c4ccc5ccc(C(F)P(=O)(O)O)cc5c4)C3)c2c1` (stereo partly drawn) [Compound 369, ((7-(((5S,8S,10aR)-8-(4-(benzo[d]isothiazol-3-yl)piperazine-1-carbonyl)-3-(5-methylbenzo[d]isoxazole-3-carbonyl)-6-oxodecahydropyrrolo [1,2-a][1,5]diazocin-5-yl)carbamoyl)naphthalen-2-yl)fluoromethyl) phosphonic acid] were, in that order, ≥ 6.52 and 5.00 to 6.00.
For `Cc1ccc2onc(C(=O)N3CC[C@H]4CC[C@@H](C(=O)N5CCOC[C@@H]5c5ccccc5)N4C(=O)[C@@H](NC(=O)c4ccc5ccc(C(F)P(=O)(O)O)cc5c4)C3)c2c1` (stereo partly drawn) [Compound 370, (fluoro(7-(((5S,8S, 10aR)-3-(5-methylbenzo[d]isoxazole-3-carbonyl)-6-oxo-((S)-3-phenylmorpholine-4-carbonyl)decahydro-pyrrolo[1,2-a] [1,5]diazocin-5-yl)carbamoyl)naphthalen-2-yl)methyl)phosphonic acid] the same measures were ≥ 6.52 and < 5.00.
